Results published in patent publication US20260102628A1, “METHOD AND APPARATUS FOR MONITORING OF PHOTODYNAMIC-THERAPY PRECURSOR STATES FOR ENHANCED THERAPEUTIC EFFICIENCY” (priority 2022, published 2026).

Assay: Optical fiber-coupled TRAST curves of IR700 in tissue and PBS buffer solution, with and without ascorbic acid
Type: physicochemical
Conditions: IR700 in tissue or PBS buffer solution, FIG. 6B
Source text: FIG. 6A illustrates the presently disclosed embodiment of a system for PDT (611), wherein the system is arranged such that the same excitation-light-delivering fiber(s) also are arranged as detection fiber(s). The system may thus be arranged to carry out a method for PDT as disclosed elsewhere herein.
The system (611) typically comprises an intensity-modulated excitation light (605), e.g. from a laser (601) and an AOM (602). The excitation light (605) is applied, e.g. lensed by an objective (603), via a gradient-index multimode optical fiber (604), into a sample (609, tissue or water solution). […] The fluorescence plotted in the TRAST curves (612), corresponds to the (average) fluorescence from the PS compounds generated by the (modulated) excitation at the fiber end, which was collected (606) by the same fiber (604), passed through the fiber, through a dichroic mirror (607), and was then detected in a region-of-interest (ROI) within the field of detection of a camera (608). While only one fiber is shown in FIG. 6A, the system may comprise multiple fibers, into which excitation light from one or several lasers is introduced, and via which fluorescence detected from their fiber-ends is fed to different ROIs detected on the camera pixel array, and/or to a set of point detectors. […]

C[Si](C)(CCC[N+](CCCS(=O)(=O)[O-])(CCCS(=O)(=O)[O-])CCCS(=O)(=O)[O-])O[Si]1(O[Si](C)(C)CCC[N+](CCCS(=O)(=O)[O-])(CCCS(=O)(=O)[O-])CCCS(=O)(=O)[O-])n2c3c4ccccc4c2N=C2N=C(N=c4c5ccccc5c(n41)=NC1=NC(=N3)c3ccccc31)c1cccc(OCCCOC(=O)NCCCCCC(=O)ON3C(=O)CCC3=O)c12.[Na+].[Na+].[Na+].[Na+] (centres unmarked) [IR700, IRdye700DX]
time range of the faster major relaxation in the TRAST curves, attributed to T1 build-up: microsecond time range

O=C1O[C@H]([C@@H](O)CO)C(O)=C1O [ascorbic acid]
time range of the prominent relaxation in the TRAST curves, attributed to build-up of a photo-reduced radical state population in IR700 (after addition of ascorbic acid): ~0.1 ms
